Measurements taken from ChEMBL document CHEMBL1201862, “PubChem BioAssay data set” (2004).
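Cultured in 96-well plates, cells were exposed to test compound for 48 hours across five concentrations. GI50: concentration for 50% inhibition of growth.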 The source made the active and inactive calls. Cut-off read from the data, not from the text of the source: active = GI50 up to about 1.1 µM and inactive = higher.

How the values were obtained:
Assay in all cases: NCI anticancer screen, dose series, 48 h
NCI-H460 = test system: NCI-H460
U-251 = test system: U-251
K562 = test system: K562
OVCAR-4 = test system: OVCAR-4
ACHN = test system: ACHN
HCT-15 = test system: HCT-15
MDA-MB-435 = test system: MDA-MB-435
SF-268 = test system: SF-268
UACC-257 = test system: UACC-257
NCI-H23 = test system: NCI-H23
HOP-62 = test system: HOP-62
UACC-62 = test system: UACC-62
SK-MEL-2 = test system: SK-MEL-2
MOLT-4 = test system: MOLT-4
HOP-92 = test system: HOP-92
EKVX = test system: EKVX
SR = test system: SR
Hs-578T = test system: Hs-578T
IGROV-1 = test system: IGROV-1
786-0 = test system: 786-0

Row | SMILES | GI50 (NCI-H460) | GI50 (U-251) | GI50 (K562) | GI50 (OVCAR-4) | GI50 (ACHN) | GI50 (HCT-15) | GI50 (MDA-MB-435) | GI50 (SF-268) | GI50 (UACC-257) | GI50 (NCI-H23) | GI50 (HOP-62) | GI50 (UACC-62) | GI50 (SK-MEL-2) | GI50 (MOLT-4) | GI50 (HOP-92) | GI50 (EKVX) | GI50 (SR) | GI50 (Hs-578T) | GI50 (IGROV-1) | GI50 (786-0)
1 | COc1cc2c(cc1O)CC1c3c(cc(O)c(OC)c3-2)CCN1C (stereo not given) | > 100 µM (inactive) | > 86.1 µM (inactive) | > 100 µM (inactive) | > 100 µM (inactive) | > 100 µM (inactive) | > 100 µM | > 100 µM (inactive) | > 100 µM (inactive) | > 100 µM (inactive) | > 100 µM (inactive) | > 100 µM (inactive) | > 100 µM (inactive) | > 100 µM (inactive) | > 58.3 µM (inactive) | > 78.3 µM (inactive) | > 100 µM (inactive) | > 59.7 µM (inactive) | > 100 µM (inactive) | > 100 µM (inactive) | > 100 µM (inactive)
2 | CN(C)CC1CCCC1=O (stereo not given) | 10.5 µM (inactive) | 6.82 µM (inactive) | 0.0632 µM (active) | 1.97 µM (inactive) | 3.03 µM (inactive) | 0.378 µM | 4.39 µM (inactive) | 5.85 µM (inactive) | 1.5 µM (inactive) | 4.48 µM (inactive) | 17.9 µM (inactive) | 4.37 µM (inactive) | 5.21 µM (inactive) | 0.144 µM (active) | 0.973 µM (active) | 1.71 µM (inactive) | 0.0479 µM (active) | 17.9 µM (inactive) | 7.57 µM (inactive) | 7.53 µM (inactive)
3 | Cc1ccc(S(=O)(=O)N/N=C2\C=C[C@]3(CC2)C(=O)N(C)c2ccccc23)cc1 | > 100 µM (inactive) | > 100 µM (inactive) | > 100 µM (inactive) | > 100 µM (inactive) | > 100 µM (inactive) | > 100 µM | > 100 µM (inactive) | > 100 µM (inactive) | > 100 µM (inactive) | > 100 µM (inactive) | > 100 µM (inactive) | > 100 µM (inactive) | > 100 µM (inactive) | > 100 µM (inactive) | > 100 µM (inactive) | > 100 µM (inactive) | > 100 µM (inactive) | 98.9 µM (inactive) | > 100 µM (inactive) | 33.5 µM (inactive)
4 | O=Cc1ccc(-c2cccs2)s1 | 33.5 µM (inactive) | 12.2 µM (inactive) | 34.3 µM (inactive) | 56.4 µM (inactive) | > 100 µM (inactive) | > 100 µM | 66.2 µM (inactive) | > 96.8 µM (inactive) | 6.62 µM (inactive) | > 68.1 µM (inactive) | 67.6 µM (inactive) | 1.16 µM (inactive) | > 100 µM (inactive) | > 95.1 µM (inactive) | 55.6 µM (inactive) | 79.4 µM (inactive) | 77.4 µM (inactive) | 34.1 µM (inactive) | 12.6 µM (inactive) | > 100 µM (inactive)
5 | Cn1c(-c2cccc([N+](=O)[O-])c2)[n+](C)c2ccccc21 | > 100 µM (inactive) | > 100 µM (inactive) | > 100 µM (inactive) | > 100 µM (inactive) | 41.6 µM (inactive) | > 100 µM | > 100 µM (inactive) | 87.7 µM (inactive) | > 100 µM (inactive) | 25.7 µM (inactive) | > 100 µM (inactive) | > 100 µM (inactive) | > 100 µM (inactive) | > 100 µM (inactive) | > 100 µM (inactive) | > 100 µM (inactive) | > 100 µM (inactive) | > 100 µM (inactive) | 44.4 µM (inactive) | > 100 µM (inactive)
6 | COc1cc2ccc1OCc1cccc(n1)COc1ccc(cc1OC)/C=N\c1ccc(cc1)/N=C\2 | > 100 µM (inactive) | > 100 µM (inactive) | > 100 µM (inactive) | > 100 µM (inactive) | > 100 µM (inactive) | > 100 µM | > 100 µM (inactive) | > 100 µM (inactive) | > 100 µM (inactive) | > 100 µM (inactive) | > 100 µM (inactive) | > 100 µM (inactive) | > 100 µM (inactive) | > 100 µM (inactive) | > 100 µM (inactive) | > 100 µM (inactive) | > 100 µM (inactive) | 54.2 µM (inactive) | > 100 µM (inactive) | > 100 µM (inactive)
7 | CC(C)(O)C1CC[C@]2(C)CC[C@]3(C)[C@H](CC[C@@H]4[C@@]5(C)CC[C@H](O)C(C)(C)[C@@H]5CC[C@]43C)[C@@H]12 (stereo not given in full) | 34.8 µM (inactive) | 35.6 µM (inactive) | 82.6 µM (inactive) | 27.2 µM (inactive) | 22.1 µM (inactive) | 35 µM | 34.1 µM (inactive) | 31 µM (inactive) | 15.4 µM (inactive) | 35.2 µM (inactive) | 25.8 µM (inactive) | 39 µM (inactive) | 20.5 µM (inactive) | 73.1 µM (inactive) | 14.5 µM (inactive) | 23.2 µM (inactive) | 30.5 µM (inactive) | 22.7 µM (inactive) | 33.3 µM (inactive) | 25.2 µM (inactive)
